Assay results taken from ChEMBL document CHEMBL4118195, “Synthesis and profiling of benzylmorpholine 1,2,4,5-tetraoxane analogue N205: Towards tetraoxane scaffolds with potential for single dose cure of malaria” (Bioorg Med Chem, 2018).

Experiments:
[1] = Drug metabolism in human liver microsomes assessed as morpholine ring opened metabolite formation at 5 uM after 60 mins by UPLC-MS analysis; type: ADME, microsome; conditions: 1 h
Cytochrome P450 3A4 [2] = target: T1, Cytochrome P450 3A4 (Homo sapiens, UniProt P08684); assay: Inhibition of CYP3A4 in human liver microsomes assessed as testosterone 6beta-hydroxylation after 4 to 40 mins in presence of NADPH by LCMS analysis; type: ADME
[3] = AUC (0 to t) in humanized NOD.Cg-Prkdcscid Il2rgtm1Wjl/SzJ mouse infected with Plasmodium falciparum Pf3D70087/N9 at 30 mg/kg, po administered as single dose by LC-MS/MS analysis; type: ADME, organism-based; conditions: in vivo
Cytochrome P450 2C9 = Cytochrome P450 2C9 (Homo sapiens, UniProt P11712); assay: Inhibition of CYP2C9 in human liver microsomes assessed as tolbutamide methylhydroxylation after 4 to 40 mins in presence of NADPH by LCMS analysis; type: ADME
[4] = Drug metabolism in human liver microsomes assessed as morpholine dealkylated metabolite formation at 5 uM after 60 mins by UPLC-MS analysis; type: ADME, microsome; conditions: 1 h
[5] = Drug metabolism in human liver microsomes at 5 uM after 60 mins by UPLC-MS analysis; type: ADME, microsome; conditions: read-out: Drug metabolism
[6] = Plasma concentration in Plasmodium berghei infected mouse at 30 mg/kg, po administered as single dose after 24 hrs; type: ADME, organism-based
[7] = AUC (0 to t) in humanized NOD.Cg-Prkdcscid Il2rgtm1Wjl/SzJ mouse infected with Plasmodium falciparum Pf3D70087/N9 at 100 mg/kg, po administered as single dose by LC-MS/MS analysis; type: ADME, organism-based; conditions: in vivo
[8] = Intrinsic clearance in rat liver microsomes assessed per mg protein at 1 uM by UPLC-MS analysis; type: ADME, microsome; conditions: read-out: CLH
[9] = Drug metabolism in rat liver microsomes at 5 uM after 60 mins by UPLC-MS analysis; type: ADME, microsome; conditions: read-out: Drug metabolism
[10] = Drug metabolism in rat liver microsomes assessed as cleaved morpholine ring metabolite formation at 5 uM after 60 mins by UPLC-MS analysis; type: ADME, microsome; conditions: 1 h
[11] = Intrinsic clearance in mouse liver microsomes assessed per mg protein at 1 uM by UPLC-MS analysis; type: ADME, microsome; conditions: read-out: CLH
Mus musculus [12] = assay: Dose normalized AUC (0 to t) in humanized NOD.Cg-Prkdcscid Il2rgtm1Wjl/SzJ mouse infected with Plasmodium falciparum Pf3D70087/N9 at 5 mg/kg, po administered as single dose by LC-MS/MS analysis; type: ADME, organism-based; conditions: in vivo
[13] = Drug metabolism in human liver microsomes assessed as cleaved morpholine ring metabolite formation at 5 uM after 60 mins by UPLC-MS analysis; type: ADME, microsome; conditions: 1 h
[14] = Cmax in humanized NOD.Cg-Prkdcscid Il2rgtm1Wjl/SzJ mouse infected with Plasmodium falciparum Pf3D70087/N9 at 30 mg/kg, po administered as single dose after 0.25 to 23 hrs by LC-MS/MS analysis; type: ADME, organism-based; set-up: dose 30 mg/kg, route oral; conditions: in vivo
[15] = AUC (0 to t) in humanized NOD.Cg-Prkdcscid Il2rgtm1Wjl/SzJ mouse infected with Plasmodium falciparum Pf3D70087/N9 at 5 mg/kg, po administered as single dose by LC-MS/MS analysis; type: ADME, organism-based; conditions: in vivo
[16] = Drug degradation in mouse liver microsomes assessed as compound half life at 5 uM by UPLC-MS method; type: ADME, microsome
[17] = Drug metabolism in mouse liver microsomes assessed as metabolite M+16 (IV) formation at 5 uM after 60 mins by UPLC-MS analysis; type: ADME, microsome; conditions: 1 h
Mus musculus [18] = assay: Dose normalized Cmax in humanized NOD.Cg-Prkdcscid Il2rgtm1Wjl/SzJ mouse infected with Plasmodium falciparum Pf3D70087/N9 at 50 mg/kg, po administered as single dose after 0.25 to 23 hrs by LC-MS/MS analysis; type: ADME, organism-based; conditions: in vivo
Cytochrome P450 2D6 = Cytochrome P450 2D6 (Homo sapiens, UniProt P10635); assay: Inhibition of CYP2D6 in human liver microsomes assessed as dextromethorphan O-demethylation after 4 to 40 mins in presence of NADPH by LCMS analysis
[19] = Drug degradation in rat liver microsomes assessed as compound half life at 5 uM by UPLC-MS method; type: ADME, microsome
[20] = Cmax in humanized NOD.Cg-Prkdcscid Il2rgtm1Wjl/SzJ mouse infected with Plasmodium falciparum Pf3D70087/N9 at 100 mg/kg, po administered as single dose after 0.25 to 23 hrs by LC-MS/MS analysis; type: ADME, organism-based; set-up: dose 100 mg/kg, route oral; conditions: in vivo
Cytochrome P450 3A4 [21] = target: T1, Cytochrome P450 3A4; assay: Inhibition of CYP3A4 in human liver microsomes assessed as midazolam 1'-hydroxylation after 4 to 40 mins in presence of NADPH by LCMS analysis; type: ADME
[22] = Tmax in humanized NOD.Cg-Prkdcscid Il2rgtm1Wjl/SzJ mouse infected with Plasmodium falciparum Pf3D70087/N9 at 15 mg/kg, po administered as single dose by LC-MS/MS analysis; type: ADME, organism-based; conditions: in vivo
Mus musculus [23] = assay: Dose normalized Cmax in humanized NOD.Cg-Prkdcscid Il2rgtm1Wjl/SzJ mouse infected with Plasmodium falciparum Pf3D70087/N9 at 30 mg/kg, po administered as single dose after 0.25 to 23 hrs by LC-MS/MS analysis; type: ADME, organism-based; conditions: in vivo

T1 sequence (P08684 whole entry): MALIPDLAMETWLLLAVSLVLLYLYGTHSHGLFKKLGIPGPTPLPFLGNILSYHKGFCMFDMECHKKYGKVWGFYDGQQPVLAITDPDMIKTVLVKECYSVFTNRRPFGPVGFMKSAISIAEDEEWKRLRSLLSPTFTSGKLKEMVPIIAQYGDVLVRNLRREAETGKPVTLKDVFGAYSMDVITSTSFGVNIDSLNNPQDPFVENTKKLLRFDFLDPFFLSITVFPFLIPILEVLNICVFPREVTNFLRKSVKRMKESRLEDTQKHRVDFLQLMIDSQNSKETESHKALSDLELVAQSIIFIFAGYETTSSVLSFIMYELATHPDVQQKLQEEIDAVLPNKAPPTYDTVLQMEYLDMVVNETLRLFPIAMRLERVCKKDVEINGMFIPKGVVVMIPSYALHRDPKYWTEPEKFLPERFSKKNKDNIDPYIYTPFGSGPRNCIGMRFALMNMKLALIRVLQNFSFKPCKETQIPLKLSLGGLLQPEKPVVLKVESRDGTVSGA
Sequence of Cytochrome P450 2C9 (P11712 whole entry): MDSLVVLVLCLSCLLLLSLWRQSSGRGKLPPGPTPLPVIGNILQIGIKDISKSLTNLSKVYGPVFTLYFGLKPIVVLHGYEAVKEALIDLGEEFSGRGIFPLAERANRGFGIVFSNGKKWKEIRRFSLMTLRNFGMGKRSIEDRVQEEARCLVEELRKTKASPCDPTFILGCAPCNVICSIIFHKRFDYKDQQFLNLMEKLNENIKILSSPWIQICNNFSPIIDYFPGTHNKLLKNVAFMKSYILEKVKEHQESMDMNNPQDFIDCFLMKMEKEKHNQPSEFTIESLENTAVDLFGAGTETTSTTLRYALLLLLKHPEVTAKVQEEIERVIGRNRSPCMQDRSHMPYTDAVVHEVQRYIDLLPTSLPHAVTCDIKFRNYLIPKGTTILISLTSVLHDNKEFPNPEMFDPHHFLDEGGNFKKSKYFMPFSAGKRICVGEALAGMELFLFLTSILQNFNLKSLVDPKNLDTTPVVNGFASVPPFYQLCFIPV
Sequence of Cytochrome P450 2D6 (P10635 whole entry): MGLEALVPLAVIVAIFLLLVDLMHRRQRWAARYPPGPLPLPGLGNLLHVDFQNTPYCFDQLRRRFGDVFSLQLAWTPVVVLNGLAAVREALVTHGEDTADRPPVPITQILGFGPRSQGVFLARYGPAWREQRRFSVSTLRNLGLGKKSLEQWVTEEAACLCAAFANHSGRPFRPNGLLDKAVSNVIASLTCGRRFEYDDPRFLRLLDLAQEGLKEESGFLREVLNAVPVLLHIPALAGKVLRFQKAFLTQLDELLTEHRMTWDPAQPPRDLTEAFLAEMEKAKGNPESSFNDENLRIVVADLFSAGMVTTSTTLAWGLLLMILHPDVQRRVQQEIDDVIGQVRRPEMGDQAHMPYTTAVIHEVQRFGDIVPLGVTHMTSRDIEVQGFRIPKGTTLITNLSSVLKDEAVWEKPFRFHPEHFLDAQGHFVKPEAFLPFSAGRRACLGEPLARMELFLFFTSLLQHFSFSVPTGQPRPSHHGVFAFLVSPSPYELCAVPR

Q: What does the source list for c1cc(C2CCC3(CC2)OOC2(OO3)C3CC4CC(C3)CC2C4)ccc1CN1CCOCC1 (stereo not given)?
A: Drug metabolism [1]: Metabolite_Notdetected; IC50 (Cytochrome P450 3A4 [2]): > 20 µM; AUC(0-t) [3]: 940 ng·h/mL; IC50 (Cytochrome P450 2C9): > 20 µM; Drug metabolism [4]: Metabolite_Notdetected; metabolised at 1 h, 5 µM [5]: 63%; concentration at 24 h [6]: > 100 ng/mL; AUC(0-t) [7]: 2320 ng·h/mL; microsomal CLint at 1 µM [8]: 118 µL/min/mg; metabolised at 1 h, 5 µM [9]: 82%; Drug metabolism [10]: Metabolite_Notdetected; microsomal CLint at 1 µM [11]: 37 µL/min/mg; AUCt/dose (Mus musculus [12]): 0.256 µg·h/mL/mg/kg; Drug metabolism [13]: Metabolite_Notdetected; Cmax [14]: 148 ng/mL; AUC(0-t) [15]: 1280 ng·h/mL; half-life at 5 µM [16]: 1.45 h; Drug metabolism [17]: Metabolite_Detected; Cmax/dose (Mus musculus [18]): 0.0121 µg/mL/mg/kg; IC50 (Cytochrome P450 2D6): > 20 µM; half-life at 5 µM [19]: 0.333 h; Cmax [20]: 250 ng/mL; IC50 (Cytochrome P450 3A4 [21]): > 20 µM; Tmax [22]: 1 h; Cmax/dose (Mus musculus [23]): 0.0049 µg/mL/mg/kg
